The target in the assay is T1, p38 MAP kinase (Homo sapiens, UniProt Q16539).
T1 construct: made in house; host or cells: E. coli
Description: P38 MAP kinase binding assay (competition with fluorescent probe SKF 86002). Conditions: time-dependent if the IC50 values decrease with the reaction time (more than two-fold in four hours). As for the experimental part: Thus, the ability of a small molecule to block fluoroprobe binding provides an experimental readout of binding to the switch control pocket. […] The reaction was initiated by addition of the enzyme. […] By comparison of rfu (relative fluorescence unit) values with that of a control (in the absence of small molecule modulators), the percentage of inhibition at each concentration of the small molecules were calculated. IC50 values for the small molecule modulators were calculated from the % inhibition values obtained at a range of concentrations of the small molecule modulators using Prism. When time-dependent inhibition was assessed, the plate was read at multiple reaction times such as 0.5, 1, 2, 3, 4 and 6 hours. The IC50 values were calculated at each time point. An inhibition was assigned as time-dependent if the IC50 values decrease with the reaction time (more than two-fold in four hours).

T1 sequence (Q16539 whole entry): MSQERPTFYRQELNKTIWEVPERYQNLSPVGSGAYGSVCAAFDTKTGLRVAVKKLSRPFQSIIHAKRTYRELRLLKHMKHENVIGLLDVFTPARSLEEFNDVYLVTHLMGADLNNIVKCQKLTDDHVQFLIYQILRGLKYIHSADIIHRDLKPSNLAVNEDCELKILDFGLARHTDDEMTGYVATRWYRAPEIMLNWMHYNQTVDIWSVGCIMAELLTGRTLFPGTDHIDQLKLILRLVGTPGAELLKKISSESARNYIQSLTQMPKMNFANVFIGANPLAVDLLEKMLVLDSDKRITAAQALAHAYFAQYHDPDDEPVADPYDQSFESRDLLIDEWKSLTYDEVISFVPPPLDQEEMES

In the case of `CC1(C(=O)O)CC2(C)CC(C)(C1)C(=O)N(Cc1cccc(-n3nc(C(C)(C)C)cc3NC(=O)Nc3cccc4ccccc34)c1)C2=O` (stereo not shown) [Example 11], the Time-dependent result was “No”.
Then `CC1(C(=O)O)CC2(C)CC(C)(C1)C(=O)N(Cc1cccc(-n3nc(C(C)(C)C)cc3NC(=O)Nc3ccc(Cl)cc3)c1)C2=O` (stereo not shown) [Example 12], with “No”; and `CC(C)(C)c1cc(NC(=O)Nc2cccc3ccccc23)n(-c2cccc(CC(=O)N3CCOCC3)c2)n1` [Example 21, 1-{3-tert-butyl-1-[3-(2-morpholino-2-oxoethyl)phenyl]-1H-pyrazol-5-yl}-3-(naphthalene-1-yl)urea], with “Yes”; and `CC(C)(C)c1cc(NC(=O)Nc2cccc3ccccc23)n(-c2ccc(CN)cc2)n1` [Example 45, 1-{3-tert-butyl-1-[4-(aminomethyl)phenyl]-1H-pyrazol-5-yl}-3-(naphthalen-1-yl)urea], with “No”.
